Test results: ChEMBL document CHEMBL1201862, “PubChem BioAssay data set” (2004)
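96-well plates; 48 h exposure; 5 concentrations. Endpoints by linear interpolation between flanking doses. Not reached: highest tested concentration assigned. The concentration for 50% growth inhibition is given as GI50.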 Active and inactive are the calls of the source. Rule as the data show it: active = GI50 up to about 1.1 µM and inactive = higher.

Tests used:
Experiment in all cases: inhibition of tumour cell growth, NCI panel, 48 h
SK-MEL-28 = tested on: SK-MEL-28
HT-29 = tested on: HT-29
SK-MEL-5 = tested on: SK-MEL-5
A549 = tested on: A549
MCF7 = tested on: MCF7
UACC-62 = tested on: UACC-62
CCRF-CEM = tested on: CCRF-CEM
U-251 = tested on: U-251
SNB-75 = tested on: SNB-75
A498 = tested on: A498
MOLT-4 = tested on: MOLT-4
SR = tested on: SR
Malme-3M = tested on: Malme-3M
SK-OV-3 = tested on: SK-OV-3
SF-539 = tested on: SF-539
SF-295 = tested on: SF-295
KM12 = tested on: KM12
786-0 = tested on: 786-0
BT-549 = tested on: BT-549

Structure (SMILES) | GI50 (SK-MEL-28) | GI50 (HT-29) | GI50 (SK-MEL-5) | GI50 (A549) | GI50 (MCF7) | GI50 (UACC-62) | GI50 (CCRF-CEM) | GI50 (U-251) | GI50 (SNB-75) | GI50 (A498) | GI50 (MOLT-4) | GI50 (SR) | GI50 (Malme-3M) | GI50 (SK-OV-3) | GI50 (SF-539) | GI50 (SF-295) | GI50 (KM12) | GI50 (786-0) | GI50 (BT-549)
Cc1cccc2c(N)c3cccc(C(=O)NCCCNCCN)c3nc12 | 15.5 µM (inactive) | 3.13 µM (inactive) | 7.11 µM (inactive) | 0.596 µM (active) | 0.679 µM (active) | 4.38 µM (inactive) | 1.46 µM (inactive) | 1.3 µM (inactive) | 0.946 µM (active) | 11.4 µM (inactive) | 0.155 µM (active) | 2.04 µM (inactive) | 5.57 µM (inactive) | 23.2 µM (inactive) | 2.17 µM (inactive) | 4.45 µM (inactive) | 4.8 µM (inactive) | 1.71 µM (inactive) | 14.6 µM (inactive)
CC(C)CCCC(C)[C@H]1CC[C@H]2n3c(nc4ccccc43)CCC[C@]12C (stereo not given in full) | 18.6 µM (inactive) | 8.79 µM (inactive) | 16.4 µM (inactive) | 20.1 µM (inactive) | 14.2 µM (inactive) | 16.2 µM (inactive) | 18.3 µM (inactive) | 19.2 µM (inactive) | 14.6 µM (inactive) | 13.2 µM (inactive) | 16.1 µM (inactive) | 15.8 µM (inactive) | 21.9 µM (inactive) | 17.1 µM (inactive) | 18.8 µM (inactive) | 16.8 µM (inactive) | 19.7 µM (inactive) | 17.5 µM (inactive) | 19.2 µM (inactive)
Brc1ccc2[nH]cc(-c3csc(-c4c[nH]c5ccc(Br)cc45)n3)c2c1 | 2.11 µM (inactive) | 1.7 µM (inactive) | 1.64 µM (inactive) | 2.69 µM (inactive) | 2.7 µM (inactive) | 1.85 µM (inactive) | 1.92 µM (inactive) | 1.82 µM (inactive) | 2.39 µM (inactive) | 2.13 µM (inactive) | 1.63 µM (inactive) | 1.63 µM (inactive) | 1.56 µM (inactive) | 2.5 µM (inactive) | 1.56 µM (inactive) | 2.48 µM (inactive) | 1.47 µM (inactive) | 1.8 µM (inactive) | 5.75 µM (inactive)
CSCCCNC(=O)c1csc(-c2csc(CCNC(=O)CNC(=O)CNC(=O)OC(C)(C)C)n2)n1 | > 100 µM (inactive) | > 100 µM (inactive) | > 100 µM (inactive) | > 100 µM (inactive) | > 100 µM (inactive) | > 100 µM (inactive) | > 100 µM (inactive) | > 100 µM (inactive) | 37.2 µM (inactive) | > 100 µM (inactive) | > 100 µM (inactive) | > 100 µM (inactive) | > 100 µM (inactive) | > 100 µM (inactive) | > 100 µM (inactive) | > 100 µM (inactive) | > 100 µM (inactive) | > 100 µM (inactive) | > 100 µM (inactive)
Cc1ccc2c(c1)C(=O)C(C1OC(=O)c3ccccc31)C2 (stereo not given) | > 100 µM (inactive) | 29.2 µM (inactive) | 65.3 µM (inactive) | > 100 µM (inactive) | 36.1 µM (inactive) | 96.2 µM (inactive) | 89.7 µM (inactive) | 61 µM (inactive) | > 100 µM (inactive) | > 100 µM (inactive) | 92.5 µM (inactive) | 74.5 µM (inactive) | > 100 µM (inactive) | > 100 µM (inactive) | 52 µM (inactive) | > 100 µM (inactive) | > 100 µM (inactive) | > 100 µM (inactive) | > 100 µM (inactive)
O=C(NNC(=S)Nc1ccccc1)c1cc(-c2ccccc2)nc2ccccc12 | 16.4 µM (inactive) | 28.6 µM (inactive) | 13.2 µM (inactive) | 16.7 µM (inactive) | 21.4 µM (inactive) | 15.6 µM (inactive) | 12.4 µM (inactive) | 12.2 µM (inactive) | 17.3 µM (inactive) | 11.5 µM (inactive) | 11.4 µM (inactive) | 13.6 µM (inactive) | 23.3 µM (inactive) | 26.8 µM (inactive) | 21.4 µM (inactive) | 13.1 µM (inactive) | 20.7 µM (inactive) | 15.8 µM (inactive) | 21.6 µM (inactive)
CCc1n[nH]c(=O)n1N1C(=O)C2CC=CCC2C1=O (stereo not given) | – | > 100 µM (inactive) | > 100 µM (inactive) | > 100 µM (inactive) | > 100 µM (inactive) | > 100 µM (inactive) | > 100 µM (inactive) | > 100 µM (inactive) | 39.1 µM (inactive) | > 100 µM (inactive) | > 100 µM (inactive) | > 100 µM (inactive) | > 100 µM (inactive) | > 100 µM (inactive) | > 100 µM (inactive) | > 100 µM (inactive) | > 100 µM (inactive) | > 100 µM (inactive) | > 100 µM (inactive)
C=CCSC1=N/C(=C\c2ccccc2)C(=O)N1CC=C | > 83.8 µM (inactive) | 23.6 µM (inactive) | 17.8 µM (inactive) | 44.6 µM (inactive) | 27.8 µM (inactive) | 33.3 µM (inactive) | 22.9 µM (inactive) | 37.7 µM (inactive) | 33.3 µM (inactive) | 23.1 µM (inactive) | 2.7 µM (inactive) | 22.7 µM (inactive) | 47 µM (inactive) | > 71.6 µM (inactive) | 84.1 µM (inactive) | 58.1 µM (inactive) | 38.8 µM (inactive) | 31.7 µM (inactive) | 40.7 µM (inactive)
C[C@@]12C[C@@H](c3ccccc3O1)N1CCCSC1=N2 | > 100 µM (inactive) | > 100 µM (inactive) | > 100 µM (inactive) | – | > 100 µM (inactive) | > 100 µM (inactive) | > 100 µM (inactive) | > 100 µM (inactive) | > 100 µM (inactive) | > 100 µM (inactive) | > 100 µM (inactive) | > 100 µM (inactive) | > 100 µM (inactive) | > 100 µM (inactive) | > 100 µM (inactive) | > 100 µM (inactive) | > 100 µM (inactive) | > 100 µM (inactive) | > 100 µM (inactive)
NC(=O)N(O)c1cccc(Br)c1 | > 100 µM (inactive) | > 100 µM (inactive) | > 100 µM (inactive) | > 100 µM (inactive) | > 100 µM (inactive) | > 100 µM (inactive) | > 100 µM (inactive) | > 100 µM (inactive) | > 100 µM (inactive) | > 100 µM (inactive) | > 100 µM (inactive) | > 100 µM (inactive) | – | > 100 µM (inactive) | > 100 µM (inactive) | > 100 µM (inactive) | > 100 µM (inactive) | > 100 µM (inactive) | > 100 µM (inactive)
CCOc1ccc(/N=N/S(=O)(=O)O)cc1 | > 100 µM (inactive) | > 100 µM (inactive) | > 100 µM (inactive) | > 100 µM (inactive) | > 100 µM (inactive) | > 100 µM (inactive) | > 100 µM (inactive) | > 100 µM (inactive) | > 100 µM (inactive) | > 100 µM (inactive) | – | > 100 µM (inactive) | > 100 µM (inactive) | > 100 µM (inactive) | > 100 µM (inactive) | > 100 µM (inactive) | > 100 µM (inactive) | > 100 µM (inactive) | > 100 µM (inactive)
